From patent publication US10968169B2, “Urea derivative” (Daiichi Sankyo Company, Limited, priority 2016, dated 2021)
Like-named read-outs stand apart in the source and are kept apart here.

Assays:
Bacteroides = assay: Indole production suppressing effect in viable bacteria; format: cell-based; conditions: indole concentration in culture supernatant, read-out: Eroides Activity of Inhibiting Indole Production(IC50)
Procedure: The effect of a tryptophanase inhibitory compound to suppress indole production from a viable bacterium can be evaluated through the following operation. When E. coli (Escherichia Coli) is used as a strain known to produce indole, the strain is cultured in an LB medium at 37° C. for 12 to 18 hours under anaerobic conditions, and then, suspended in an assay medium (5 mM L-Tryptophan/PBS(+)/25 mM HEPES (pH8)) in such a manner as to obtain O.D. of about 0.3. When bacteroides is used, the strain is cultured in a modified GAM medium at 37° C. for 12 to 18 hours under anaerobic conditions, and then suspended in an assay medium (5 mM L-Tryptophan/PBS(+)/25 mM HEPES (pH8)) in such a manner as to obtain O.D. of about 1.1. The thus obtained viable bacterial suspension prepared to have a final concentration of a compound of 1 μM to 10 mM is dispensed at 200 μL per well into a 96-well plate and cultured at 37° C. for 2 to 4 hours under anaerobic conditions, and O.D., an ATP concentration (that can be quantitatively determined by using BacTiter-Glo (Promega Corporation)) and an indole concentration in the culture supernatant (that can be quantitatively determined by utilizing Ehrlich reaction) are measured. The effect of the tryptophanase inhibitory compound to suppress indole production from a viable bacterium can be evaluated depending on the degree of lowering of the indole concentration in the culture supernatant. It can be checked whether or not the effect is derived from a function other than tryptophanase inhibition, such as a bactericidal function or a bacterial growth inhibitory function, depending on lowering of the O.D. or reduction in the ATP concentration or by performing a generally practiced antibacterial activity test (a MIC (minimum growth inhibition concentration) test) using levofloxacin or the like as a positive control. The activities of inhibiting indole production of the compounds of the respective examples shown in Table 11 were measured by the above-described method using Bacteroides to evaluate the effect of inhibiting indole production.

[1] = molecular target: tryptophanase of Bacteroides thetaiotamicron (Bacteroides thetaiotaomicron, UniProt Q8A7N2); assay: Tryptophanase enzyme inhibitory activity (LDH-coupled NADH loss); format: biochemical; conditions: L-tryptophan 10 mM, 37° C., absorbance at 340 nm; read-out: Bacteroides Activity of Inhibiting Tryptophanase (IC50)
Procedure: Tryptophanase inhibitory activity was evaluated by a method using lactate dehydrogenase (LDH). The reaction time-dependent reduction in NADH conjugated with the enzymatic reaction, with LDH, of pyruvic acid produced through the enzymatic reaction of L-tryptophan as a substrate with tryptophanase, was measured with a spectrophotometer (Phillips-R S et al., Biochemistry, 23, 6228-6234 (1984)). Enzyme inhibitory activity obtained without adding a test compound (by adding DMSO alone) in the presence of tryptophanase was used as a control. As the enzyme, tryptophanase of Bacteroides thetaiotamicron (Genbank accession number: HC914434.1) was used. A test compound solution was prepared by dissolving each test compound in DMSO in an arbitrary concentration (from 30 mM to 30 nM at 10-fold common ratio). LDH, NADH and L-tryptophan were prepared, using distilled water, respectively to concentrations of 80 units/mL, 10 mM and […]. Bacteroides tryptophanase was prepared to 30 mg/mL. A potassium phosphate buffer was used as the buffer. [table] A reaction solution A was dispensed at 284.8 μL per well into a 96-well plate, and the test compound solution was added at 3.2 μL per well to obtain a final concentration of 1/100 (reaction solution B). The reaction solution B was incubated at 37° C. for 30 minutes, L-tryptophan was added thereto at 32 μL per well to obtain a final concentration of 10 mM (reaction solution C), and the enzyme reaction was performed at 37° C. over 30 minutes with absorbance at 340 nm measured for monitoring the NADH loss. Based on the NADH loss, the tryptophanase inhibitory activity of the compound was evaluated. Besides, the following compounds were similarly tested instead of the test compound.

[2] = tested on: indoxyl sulfate concentration in the plasma; assay: Effect of reducing indoxyl sulfate concentration in the plasma of mice; format: in vivo, male BALB/c mouse; conditions: oral
Procedure: An effect of a tryptophanase inhibitory compound to reduce an indoxyl sulfate concentration in the plasma of a mouse can be evaluated through the following operation.
After fasting a male BALB/c mouse overnight, a tryptophanase compound dissolved or suspended at a concentration of 0.01 to 10 mg/mL in a 0.5% methylcellulose (MC) solution used as a solvent and a 0.5% MC solution are orally administered by gavage at a dose of 10 mL/kg respectively to a test compound group and to a solvent control group. When 30 minutes have elapsed after the administration of the test compound or the solvent, L-tryptophan, that is, a substrate of tryptophanase, is orally administered by gavage at a dose of 1 to 3 g/kg. The L-tryptophan is suspended in a 0.5% tragacanth solution. For 12 hours after the administration of the L-tryptophan, blood is collected over time from a tail vein by using a hematocrit tube. The thus obtained blood is centrifuged at 11,000 rpm for 5 minutes to collect plasma, and the indoxyl sulfate concentration in the plasma is measured singly by liquid chromatography (fluorescence detection) or its combination with a mass spectrometer used subsequently. The indoxyl sulfate concentration in the plasma of the test compound group against the indoxyl sulfate concentration in the plasma of the solvent control group is calculated as, for example, a ratio of the area under a curve of the indoxyl sulfate concentration, and thus, the efficacy of each compound in a living body can be compared.
The indoxyl sulfate concentrations in plasma obtained by using the compounds of the respective examples shown in Table 12 below were measured by the above-described method to evaluate the effect of reducing indoxyl sulfate concentration.

Chain of tryptophanase of Bacteroides thetaiotamicron (Q8A7N2 entry or part of it, change not shown): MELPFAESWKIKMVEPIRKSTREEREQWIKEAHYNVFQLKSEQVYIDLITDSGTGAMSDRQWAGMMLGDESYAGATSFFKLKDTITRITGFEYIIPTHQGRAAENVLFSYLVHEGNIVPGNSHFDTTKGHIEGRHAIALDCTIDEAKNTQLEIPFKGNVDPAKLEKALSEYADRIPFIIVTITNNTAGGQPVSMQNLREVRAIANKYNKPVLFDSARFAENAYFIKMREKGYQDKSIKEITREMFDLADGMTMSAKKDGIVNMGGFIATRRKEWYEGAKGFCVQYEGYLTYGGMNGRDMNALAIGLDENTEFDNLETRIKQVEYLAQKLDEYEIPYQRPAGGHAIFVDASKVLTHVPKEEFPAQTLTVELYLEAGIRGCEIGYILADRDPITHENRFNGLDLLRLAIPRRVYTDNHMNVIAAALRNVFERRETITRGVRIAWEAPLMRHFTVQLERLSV

Structure (SMILES) | IC50 [1] | IC50 (Bacteroides; Bacteroides) | Indoxyl Sulfate Reduction Effect in Male BALB/c Mouse Plasma (Indoxyl sulfate reduction effect in plasma 6 hours after administering L-tryptophan: ED75−, mg/kg) [2] | IC50 (Bacteroides)
CCC(CC)(NC(=O)Nc1cccc(F)c1)C(=O)O [Compound E, 2-ethyl-2-{[(3-fluorophenyl)carbamoyl]amino}butanoic acid] | 18.9 µM | 7 µM | >1 mg/kg | –
CC[C@@](C)(NC(=O)Nc1ccc(I)cc1)C(=O)O [Example 31, (−)-N-[(4-Iodophenyl)carbamoyl]-D-isovaline] | 7.9 µM | < 3 µM | 1 mg/kg | –
CCC(CC)(NC(=O)Nc1ccc(F)cc1)C(=O)O [Compound D, 2-ethyl-2-{[(4-fluorophenyl)carbamoyl]amino}butanoic acid] | 38.1 µM | 11 µM | 1 mg/kg | –
CC[C@@](C)(NC(=O)Nc1ccc(Cl)cc1)C(=O)O [Example 25, (−)-N-[(4-Chlorophenyl)carbamoyl]-D-isovaline] | 26.8 µM | 23 µM | 1 mg/kg | –
CCC(CC)(NC(=O)Nc1cccc(Cl)c1)C(=O)O [Compound B, 2-{[(3-chlorophenyl)carbamoyl]amino}-2-ethylbutanoic acid] | 7.4 µM | < 3 µM | >1 mg/kg | –
CCC(CC)(NC(=O)Nc1ccsc1)C(=O)O [Compound H, 2-ethyl-2-[(thiophen-3-ylcarbamoyl)amino]butanoic acid] | 34.1 µM | 11 µM | 1 mg/kg | –

Continued by falling IC50 [1], values first:

IC50 [1] | Structure (SMILES) | IC50 (Bacteroides; Bacteroides) | Indoxyl Sulfate Reduction Effect in Male BALB/c Mouse Plasma (Indoxyl sulfate reduction effect in plasma 6 hours after administering L-tryptophan: ED75−, mg/kg) [2] | IC50 (Bacteroides)
22.1 µM | CC[C@@](C)(NC(=O)Nc1ccc(Br)cc1)C(=O)O [Example 30, (−)-N-[(4-Bromophenyl)carbamoyl]-D-isovaline] | 14 µM | 1 mg/kg | –
20 µM | CCC(CC)(NC(=O)Nc1ccccc1)C(=O)O [Compound A, 2-ethyl-2-[(phenylcarbamoyl)amino]butanoic acid] | 8 µM | 1 mg/kg | –
12.8 µM | CC[C@@](C)(NC(=O)Nc1ccc(OC(F)F)cc1)C(=O)O [Example 8, (−)-N-{[4-(Difluoromethoxy)phenyl]carbamoyl}-D-isovaline] | 7 µM | 1 mg/kg | –
7.7 µM | CC[C@@](NC(=O)Nc1cccc(C#N)c1)(C(=O)O)C1CC1 [(−) Isomer Compound of Example 33, (−)-2-{[(3-cyanophenyl)carbamoyl]amino}-2-cyclopropylbutanoic acid] | – | >1 mg/kg | 9 µM
6 µM | CCC(CC)(NC(=O)Nc1csc(Cl)c1)C(=O)O [Example 27, 2-{[(5-Chlorothiophen-3-yl)carbamoyl]amino}-2-ethylbutanoic acid] | 5 µM | 1 mg/kg | –
4.7 µM | CCC(CC)(NC(=O)Nc1ccc(CC#N)cc1)C(=O)O [Compound G, 2-({[4-(cyanomethyl)phenyl]carbamoyl}amino)-2-ethylbutanoic acid] | 8 µM | 1 mg/kg | –
0.6 µM | CCC(NC(=O)Nc1cccc(C#N)c1)(C(=O)O)C1CC1 (single isomer, unassigned) [(+) Isomer Compound of Example 33, (+)-2-{[(3-Cyanophenyl)carbamoyl]amino}-2-cyclopropylbutanoic acid] | – | 1 mg/kg | < 3 µM
